These results are taken from ChEMBL document CHEMBL1201862, “PubChem BioAssay data set” (2004).

Each structure is given as a SMILES string.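 Cells were grown in 96-well plates and exposed to each compound for 48 hours at five concentrations; endpoints were interpolated linearly between bracketing concentrations, or set to the highest concentration if not reached. GI50 = concentration required for 50% inhibition of growth.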 The source made the active and inactive calls. Rule as the data show it: active = GI50 up to about 1.1 µM and inactive = higher.

Common to all, as to assay: DTP human tumour cell line panel, 48 h
Assay [1] concerns SNB-19.
The subject of assay [2] is SW-620.
Assay [3] concerns T47D.
Assay [4] relates to A549.
Assay [5] relates to HCC 2998.
For assay [6], the system named is IGROV-1.
The test system of assay [7] is HOP-62.
The test system of assay [8] is Malme-3M.
Assay [9] concerns CAKI-1.
Assay [10] relates to MDA-MB-231.
The test system of assay [11] is HT-29.
Assay [12] deals with SNB-75.
The subject of assay [13] is RXF 393.
In assay [14] the test system is OVCAR-5.
For assay [15], the system named is SK-MEL-28.
For assay [16], the system named is SF-268.
Assay [17] concerns M14.
Assay [18] deals with SK-MEL-5.
In assay [19] the test system is SR.
Assay [20] has as its system EKVX.

With `CC(C)=CCC[C@@H](C)C1=C(O)C(=O)C(C)=C(N)C1=O`, the GI50 was 32.5 µM (inactive) in [1]; 43.1 µM (inactive) in [2]; 23.9 µM (inactive) in [3]; 25.8 µM (inactive) in assay [4]; 59.6 µM (inactive) in assay [5]; 7.69 µM (inactive) in assay [6]. Moreover, the GI50 was 23.2 µM (inactive) in [7]; 14.1 µM (inactive) in [8]; 24 µM (inactive) in assay [9]; 46.5 µM (inactive) in [10]; 40.8 µM (inactive) in assay [11]; 28.8 µM (inactive) in [12]. Further, the GI50 in assay [13] is 32.9 µM (inactive); in assay [14], 81.5 µM (inactive); in assay [15] it was 34.8 µM (inactive); in [16], 21.5 µM (inactive); in assay [17], 20.5 µM (inactive); in assay [18] it was 20.4 µM (inactive). Besides, the GI50 in assay [19] was 16.7 µM (inactive); in assay [20], 36.1 µM (inactive).
For the compound `CCCCCCCC(=O)O[C@H]1[C@H]2[C@@H](CC1(C)C)C(=O)[C@]13O[C@H]1C(=O)[C@]1(CO1)[C@]23C`, the GI50 in assay [1] is 17.7 µM (inactive); in [2], 0.706 µM (active); in [3] it was 1.05 µM (active); in assay [4], 30.6 µM (inactive); in assay [5], 5.96 µM (inactive); in [6], 4.4 µM (inactive). The GI50 in assay [7] is 17.5 µM (inactive); in assay [8] it was 3.29 µM (inactive); in [9], 2.62 µM (inactive); in assay [10] it was 25.5 µM (inactive); in [11], 5.19 µM (inactive); in [12], 23.4 µM (inactive). For the same compound, the GI50 in [13] is 2.22 µM (inactive); in assay [14], 11.1 µM (inactive); in assay [15], 3.38 µM (inactive); in [16], 6.01 µM (inactive); in assay [17], 3.92 µM (inactive); in assay [18], 4.06 µM (inactive). The GI50 in assay [19] is 2.07 µM (inactive); in assay [20] it was 3.66 µM (inactive).
On to `Cc1ccc(C2SCC(=O)N2c2ccc(-n3c(-c4ccccc4)nc4ccccc4c3=O)cc2)cc1` (configuration not stated), for which the GI50 in assay [1] is 26.9 µM (inactive); in [2], 34.6 µM (inactive); in assay [3] it was 15.5 µM (inactive); in assay [4] it was 25.1 µM (inactive); in assay [5] it was 17.5 µM (inactive); in assay [6] it was 20.5 µM (inactive). The GI50 was 12.9 µM (inactive) in [7]; 22 µM (inactive) in assay [8]; 30.1 µM (inactive) in [9]; 4.84 µM (inactive) in assay [10]; 17.2 µM (inactive) in [11]; 18.3 µM (inactive) in [12]. Moreover, the GI50 in assay [13] was 22.8 µM (inactive); in [14], 42.4 µM (inactive); in assay [15] it was 21 µM (inactive); in [16] it was 24.2 µM (inactive); in assay [17], 23.3 µM (inactive); in assay [18], 11.6 µM (inactive). The GI50 in assay [19] was 7.89 µM (inactive).
Regarding `Cc1ccc([N+](=O)[O-])cc1NC1=NCCO1`, the GI50 in [1], in [2], in assay [3], in assay [4], in [5] and in assay [6] was > 100 µM (inactive) each time. The GI50 in [7], in [8], in [9], in assay [10], in assay [11] and in assay [12] was > 100 µM (inactive) in each case. Moreover, the GI50 in assay [13], in assay [14], in assay [15], in [16], in assay [17] and in assay [18] was > 100 µM (inactive) throughout. For the same compound, the values for the GI50 in assay [19] and in assay [20] were 45.8 µM (inactive) and > 100 µM (inactive), respectively.
In the case of `CC12CCC(=O)[C@@]1(C)CCCC2=O` (some centres not stated), the GI50 in assay [1], in assay [2], in assay [3], in assay [4], in [5] and in [6] was > 100 µM (inactive) each time. In addition, the GI50 in [7] is > 100 µM (inactive); in assay [8], > 100 µM (inactive); in assay [9] it was > 100 µM (inactive); in assay [10], > 100 µM (inactive); in assay [11], > 100 µM (inactive); in assay [12], > 10 µM (inactive). The GI50 was 42.2 µM (inactive) in assay [13]; > 100 µM (inactive) in assay [14]; > 100 µM (inactive) in assay [15]; > 100 µM (inactive) in [16]; > 100 µM (inactive) in assay [17]; > 10 µM (inactive) in assay [18]. In addition, the GI50 in assay [19] and in assay [20] was > 100 µM (inactive) in each case.
For `Clc1c(Cl)c(Cl)c2c(nnn2C2CCCO2)c1Cl` (configuration not stated), the GI50 in [3] is 50.9 µM (inactive); in assay [4], 24.7 µM (inactive); in assay [5] it was 29.8 µM (inactive); in assay [6] it was 34.4 µM (inactive); in [7], 40.5 µM (inactive); in assay [8], 31.3 µM (inactive). Further, the GI50 in assay [9] was 31.9 µM (inactive); in assay [10] it was 43.5 µM (inactive); in assay [11] it was 33.6 µM (inactive); in assay [12] it was 12.9 µM (inactive); in assay [13] it was 44.4 µM (inactive); in assay [14], 41.7 µM (inactive). For the same compound, the GI50 in assay [16] is 29.8 µM (inactive); in assay [17] it was 39.6 µM (inactive); in [18], 40.1 µM (inactive); in [19], 32.9 µM (inactive); in [20], 22.3 µM (inactive).
For the compound `COC12c3ccccc3-c3ccccc3C1[C@H]1C(=O)OC(=O)[C@H]12` (some centres not stated), the GI50 in assay [1], in assay [2], in assay [3], in assay [5], in assay [6] and in [7] was > 10 µM (inactive) each time. Besides, the GI50 in [8], in assay [9], in assay [10], in assay [11], in [12] and in assay [13] was > 10 µM (inactive) each time. Further, the GI50 in assay [14], in assay [15], in assay [16], in [17], in assay [18] and in [19] was > 10 µM (inactive) throughout. For the same compound, the GI50 in assay [20] is > 10 µM (inactive).
As for `CC(=O)OCC1OC(n2c3c(cc(C#N)c2=S)CCC3)C(OC(C)=O)C(OC(C)=O)C1OC(C)=O` (configuration not stated), the GI50 in assay [1], in [2], in assay [3], in assay [4], in assay [5] and in assay [6] was > 100 µM (inactive) each time. In addition, the GI50 is > 100 µM (inactive) in assay [7]; > 100 µM (inactive) in assay [8]; > 100 µM (inactive) in [9]; > 100 µM (inactive) in assay [10]; > 100 µM (inactive) in assay [11]; 68.1 µM (inactive) in assay [12]. The GI50 in [13], in [14], in [15], in assay [16], in [17] and in [18] was > 100 µM (inactive) throughout. In addition, the GI50 in assay [19] is 68.4 µM (inactive).
As to `CC(=O)OCC(OC(C)=O)C(OC(C)=O)C(OC(C)=O)C(/C=N\Nc1nc2ccccc2c(=O)[nH]1)OC(C)=O` (configuration not stated), the GI50 in [1], in assay [2], in assay [3], in assay [4], in assay [5] and in assay [7] was > 100 µM (inactive) throughout. Further, the GI50 in [8] was > 100 µM (inactive); in [9] it was > 100 µM (inactive); in assay [10], > 100 µM (inactive); in assay [11], > 100 µM (inactive); in [12], 27.6 µM (inactive); in assay [13], > 100 µM (inactive). The GI50 in assay [14], in assay [15], in [16], in [17], in [18] and in [19] was > 100 µM (inactive) throughout. Also, the GI50 in assay [20] is 54.7 µM (inactive).
On to `Cc1sccc1C(=S)Nc1ccc(Cl)c(/C=N/OC(C)(C)C)c1`, for which the GI50 is 37.9 µM (inactive) in assay [2]; 10.6 µM (inactive) in assay [3]; 20.2 µM (inactive) in assay [4]; 16.4 µM (inactive) in assay [5]; 13.5 µM (inactive) in [6]; 16 µM (inactive) in assay [7]. Also, the GI50 in assay [8] is 15.1 µM (inactive); in assay [9], 12 µM (inactive); in [10] it was 13.3 µM (inactive); in assay [11] it was 14.3 µM (inactive); in [12] it was 21.1 µM (inactive); in [13], 17.2 µM (inactive). In addition, the GI50 in [14] was 19.3 µM (inactive); in assay [15], 26.6 µM (inactive); in assay [16], 18.3 µM (inactive); in assay [17] it was 17.9 µM (inactive); in [18], 13.2 µM (inactive); in assay [19], 17.6 µM (inactive). The GI50 in [20] is 15.8 µM (inactive).
